Assay results from US10301286B2, “Piperazine derivative” (Astellas Pharma Inc., priority 2015, dated 2019).
Where a name gives a salt, the structure may show the parent alone.

Key:
human MC1 receptor = human MC1 receptor (Homo sapiens (Human), UniProt Q01726); experiment: Human MC receptor activation, cAMP production in cells expressing human MC1 receptor; assay type: cell-based; details: FreeStyle 293-F cells transiently expressing human MC1 receptor, α-MSH maximum = 100%
Text: (§1) (1) Construction of Human MC Receptor-Expressing Vector
(§2) A human MC4 receptor gene (GenBank Accession No.: NM_005912.2), a human MC1 receptor gene (GenBank Accession No.: NM_002386.3), or a human MC3 receptor gene (GenBank Accession No.: NM_019888.3) was introduced into an expression vector pcDNA™ 3.1/V5-His TOPO (registered trademark) (Thermo Fisher Scientific Inc.).
(§3) (2) Construction of Cells Transiently Expressing Human MC Receptor
(§4) An expression vector for a human MC4, MC1, or MC3 receptor was introduced into FreeStyle™ 293-F cell (Thermo Fisher Scientific Inc., product number: R790-07). For the introduction, electroporation was employed. That is, 1×10^7 FreeStyle™ 293-F cell were suspended in 80 μL of an electroporation buffer (Thermo Fisher Scientific Inc., product number: B201-100), and 20 μg of the expression vector was added thereto. The resultant was put into a cuvette (OC-100 Processing Assembly, MaxCyte, Inc.) and electroporated with MaxCyte SIX (registered trademark) (MaxCyte, Inc.). The cells were cultured over one day, suspended in a Cell Banker (registered trademark) 1 (JUJI FIELD Inc.), product number: BLC-1), and stored frozen until their use.
(§5) (3) Measurement of Amount of cAMP Produced
(§6) Measurement was carried out by using a LANCE (registered trademark) Ultra cAMP Kit (PerkinElmer, Inc.) in accordance with the attached instructions. That is, after dissolution in DMSO, the test compound (a final concentration of 1 pM to 30 μM) diluted with an assay buffer (Hank's balanced salt solution, 5 mM 4-(2-hydroxyethyl)-1-piperazineethanesulfonic acid (HEPES), 0.5 mM 3-isobutyl-1-methylxanthine (IBMX), 0.1% bovine serum albumin, pH 7.4), or α-MSH (Bachem Inc., a final concentration of 1 pM to 30 μM) was added to OptiPlate-384 (PerkinElmer, Inc.). Furthermore, a suspension of cells transiently expressing the human MC4, MC1, or MC3 receptor prepared by using the assay buffer was added thereto at 1,000 cells/well, followed by being left to stand at room temperature for about 1 hour. Thereafter, an Eu-cAMP tracer solution and an ULight™-anti-cAMP solution were added thereto, followed by being left to stand at room temperature for about 1 hour. The amount of cAMP was calculated using EnVision (registered trademark) (PerkinElmer Inc.).
(§7) For the agonistic activity, an efficacy (EC50 (μM)) was calculated by a non-linear regression method with a Sigmoid-Emax model, by defining the maximum reaction with α-MSH as 100% and the reaction with the vehicle alone as 0%, respectively.

human MC3 receptor = human MC3 receptor (Homo sapiens (Human), UniProt P41968); experiment: Human MC receptor activation, cAMP production in cells expressing human MC3 receptor; assay type: cell-based; details: FreeStyle 293-F cells transiently expressing human MC3 receptor, α-MSH maximum = 100%
Text: as §1, §2, §3, §4, §5, §6, §7

human MC4 receptor = human MC4 receptor (Homo sapiens (Human), UniProt P32245); experiment: Human MC receptor activation, cAMP production in cells expressing human MC4 receptor; assay type: cell-based; details: FreeStyle 293-F cells transiently expressing human MC4 receptor, α-MSH maximum = 100%
Text: as §1, §2, §3, §4, §5, §6, §7

Male SD rats = experiment: Rat erection-inducing action; assay type: in vivo; details: 10 mg/kg intravenously, erections up to one hour after administration, vs vehicle, P<0.05
Protocol: Male SD rats (Charles River Laboratories Japan, Inc.) were used. A test compound (10 mg/kg) or the vehicle (20% dimethyl acetamide, 10% Cremophor (registered trademark), 70% physiological saline) was administered intravenously through the tail vein. After administration, the rats were transferred to transparent observation cages made of plastic to measure the erection times of up to one hour after administration. The measurements were carried out for five groups (3 to 7 animals per group): vehicle groups, Example compound groups (Ex 87, 88, and 89), and THIQ group, which had been known as an MC4 receptor agonist (J. Med. Chem., 45, 4589-4593 (2002)), as a positive control. For a statistical significance test, Dunnett's multiple comparison test was used for the comparison with vehicle control group, and it was determined whether there was an erection-inducing effect with a statistically significant difference (P<0.05).

Sequence of human MC3 receptor (P41968 whole entry): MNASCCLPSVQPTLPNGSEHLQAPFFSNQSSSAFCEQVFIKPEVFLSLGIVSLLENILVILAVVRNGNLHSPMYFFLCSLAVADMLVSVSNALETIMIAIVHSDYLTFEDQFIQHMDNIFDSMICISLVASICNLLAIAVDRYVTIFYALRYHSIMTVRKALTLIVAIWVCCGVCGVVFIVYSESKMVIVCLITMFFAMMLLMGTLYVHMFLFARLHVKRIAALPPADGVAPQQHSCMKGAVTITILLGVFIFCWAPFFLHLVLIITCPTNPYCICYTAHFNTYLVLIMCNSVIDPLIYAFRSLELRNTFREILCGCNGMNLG
Sequence of human MC4 receptor (P32245 whole entry): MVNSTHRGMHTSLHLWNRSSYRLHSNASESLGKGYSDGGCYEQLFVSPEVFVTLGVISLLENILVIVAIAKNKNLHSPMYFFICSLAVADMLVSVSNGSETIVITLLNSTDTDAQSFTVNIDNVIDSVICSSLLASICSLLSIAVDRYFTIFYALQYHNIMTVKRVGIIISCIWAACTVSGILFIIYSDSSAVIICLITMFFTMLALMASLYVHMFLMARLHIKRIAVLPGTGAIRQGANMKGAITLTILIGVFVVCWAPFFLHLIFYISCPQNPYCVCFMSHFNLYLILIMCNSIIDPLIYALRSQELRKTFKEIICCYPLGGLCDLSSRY
Sequence of human MC1 receptor (Q01726 whole entry): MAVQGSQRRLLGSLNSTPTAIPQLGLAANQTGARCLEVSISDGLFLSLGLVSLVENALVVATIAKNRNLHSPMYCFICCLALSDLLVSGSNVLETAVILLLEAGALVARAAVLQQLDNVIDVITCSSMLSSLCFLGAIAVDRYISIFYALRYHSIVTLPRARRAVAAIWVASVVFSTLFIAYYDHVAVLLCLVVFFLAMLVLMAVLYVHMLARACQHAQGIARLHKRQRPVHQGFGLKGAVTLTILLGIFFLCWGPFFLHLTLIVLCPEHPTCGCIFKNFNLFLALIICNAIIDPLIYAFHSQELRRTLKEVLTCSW

Row | EC50 (human MC1 receptor) [µM] | EC50 (human MC3 receptor) [µM] | EC50 (human MC4 receptor) [µM] | SMILES | erection-inducing effect (Male SD rats)
1 | 6.4 | > 30 | 0.48 | C[C@@H]1CN([C@@H](Cc2ccc3ccccc3c2)C(=O)O)C[C@H](C)N1C(=O)[C@@H]1CN(C(C)(C)C)C[C@H]1c1ccc(F)cc1F [Example 6, (2S)-2-[(3R,5S)-4-{[(3S,4R)-1-tert-butyl-4-(2,4-difluorophenyl)pyrrolidin-3-yl]carbonyl}-3,5-dimethylpiperazin-1-yl]-3-(2-naphthyl)propanoic acid dihydrochloride] | 
2 |  | 5 | 0.048 | C[C@H]1CN([C@@H](Cc2ccc(C(F)(F)F)cc2)C(=O)O)CCN1C(=O)[C@@H]1CN(C(C)(C)C)C[C@H]1c1ccc(F)cc1F [Example 13] | 
3 |  |  | 0.49 | C[C@@H]1CN(C(=O)[C@@H]2CN(C(C)(C)C)C[C@H]2c2ccc(F)cc2F)CCN1C(Cc1ccc(Cl)c(Cl)c1)C(=O)O (stereo partly drawn) [Example 15] | 
4 |  |  | 4.9 | C[C@@H]1CN(C(=O)[C@@H]2CN(C(C)(C)C)C[C@H]2c2ccc(F)cc2F)CCN1C(Cc1ccc(Cl)c(Cl)c1)C(=O)O (stereo partly drawn) [Example 16] | 
5 |  |  | 2.4 | CC(C)(C)N1C[C@@H](C(=O)N2CCN([C@@H](Cc3ccc4ccccc4c3)C(=O)O)CC23CC3)[C@H](c2ccc(F)cc2F)C1 [Example 17] | 
6 |  |  | 1.7 | C[C@H]1CN([C@@H](Cc2ccc(C#N)cc2)C(=O)O)CCN1C(=O)[C@@H]1CN(C(C)(C)C)C[C@H]1c1ccc(F)cc1F [Example 21] | 
7 | 15 | 0.58 | 0.0032 | CN(C)CC[C@H]1CN([C@@H](Cc2ccc3ccccc3c2)C(=O)O)CCN1C(=O)[C@@H]1CN(c2ccc(=O)n(C)n2)C[C@H]1c1ccc(F)cc1F [Example 24] | 
8 |  |  | 1 | COC[C@H]1CN([C@@H](Cc2ccc3c(c2)CCC3)C(=O)O)CCN1C(=O)[C@@H]1CN(c2ccc(F)cc2)C[C@H]1c1ccc(F)cc1F [Example 27] | 
9 | 3.9 | 10 | 0.15 | C[C@H]1CN([C@@H](Cc2ccc3c(c2)CCC3)C(=O)O)CCN1C(=O)[C@@H]1CN(C(C)(C)CO)C[C@H]1c1ccc(F)cc1F [Example 28] | 
10 |  |  | 0.61 | C[C@H]1CN([C@@H](Cc2ccc3c(c2)CCC3)C(=O)O)CCN1C(=O)[C@@H]1CN(c2ccc(C(F)(F)F)nn2)C[C@H]1c1ccc(F)cc1F [Example 33] | 
11 |  |  | 0.14 | C[C@H]1CN([C@@H](Cc2ccc3c(c2)CCC3)C(=O)O)CCN1C(=O)[C@@H]1CN(C(=O)C2CC2)C[C@H]1c1ccc(F)cc1F [Example 35] | 
12 |  |  | 0.0019 | CC(C)(C)N1C[C@@H](C(=O)N2CCN([C@@H](Cc3ccc4c(c3)CCC4)C(=O)O)C[C@@H]2CC2CC2)[C@H](c2ccc(F)cc2F)C1 [Example 36] | 
13 |  |  | 1.1 | COc1ccc(C2CN(C(C)(C)C)CC2C(=O)N2CCN([C@@H](Cc3ccc4c(c3)CCC4)C(=O)O)C[C@@H]2C)cc1 (stereo partly drawn) [Example 45] | 
14 | > 30 | 11 | 0.062 | C[C@H]1CN([C@@H](Cc2ccc3c(c2)CCC3)C(=O)O)CCN1C(=O)C1CN(C(C)(C)C)CC1c1ccc(C#N)cc1F (stereo partly drawn) [Example 47] | 
15 |  |  | 0.064 | CC[C@H]1CN([C@@H](Cc2ccc3ccccc3c2)C(=O)O)CCN1C(=O)[C@@H]1CN(C(C)=O)C[C@H]1c1ccc(F)cc1F [Example 50] | 
16 |  |  | 0.19 | C[C@H]1CN([C@@H](Cc2c[nH]c3ccccc23)C(=O)O)CCN1C(=O)[C@@H]1CN(C(C)(C)C)C[C@H]1c1ccc(F)cc1F [Example 53] | 
17 |  |  | 0.27 | C[C@H]1CN([C@@H](Cc2ccc3c(c2)CCC3)C(=O)O)CCN1C(=O)C1CN(C(C)(C)C)CC1c1ccc(Cl)s1 (stereo partly drawn) [Example 55] | 
18 | 1.9 | 2.4 | 0.12 | C[C@H]1CN([C@@H](CC2CCCCC2)C(=O)O)CCN1C(=O)[C@@H]1CN(C(C)(C)C)C[C@H]1c1ccc(Cl)cc1F [Example 57] | 
19 |  |  | 0.53 | C[C@H]1CN([C@@H](Cc2ccc3c(c2)CCC3)C(=O)O)CCN1C(=O)[C@@H]1CN(C2(C)CC2)C[C@H]1c1ccc(Cl)cc1F [Example 68] | 
20 | 0.72 | 2.9 | 0.0051 | COc1ccc(C[C@@H](C(=O)O)N2CCN(C(=O)[C@@H]3CN(C(C)(C)C)C[C@H]3c3ccc(Cl)cc3F)[C@@H](C)C2)c(F)c1 [Example 69] | 
21 | 2.1 | 5.3 | 0.04 | C[C@H]1CN([C@@H](Cc2ccc(OC(F)F)cc2)C(=O)O)CCN1C(=O)[C@@H]1CN(C(C)(C)C)C[C@H]1c1ccc(Cl)cc1F [Example 72] | 
22 | 1.4 | 1 | 0.03 | Cc1ccc(C[C@@](C)(C(=O)O)N2CCN(C(=O)[C@@H]3CN(C4CCOCC4)C[C@H]3c3ccc(F)cc3F)[C@@H](C)C2)c(F)c1 [Example 74] | 
23 | 1 | 0.68 | 0.016 | Cc1ccc([C@H](C)[C@@H](C(=O)O)N2CCN(C(=O)[C@@H]3CN(C4CCOCC4)C[C@H]3c3ccc(Cl)cc3F)[C@@H](C)C2)cc1 [Example 78] | 
24 |  |  | 0.19 | C[C@H]1CN([C@@H](Cc2ccc3c(c2)CCC3)C(=O)O)CCN1C(=O)C1CN(C(C)(C)C)CC1c1ccc2c(c1)CCC2 (stereo partly drawn) [Example 83] | 
25 |  |  | 0.018 | Cc1ccc(C[C@@H](C(=O)O)N2CCN(C(=O)C3CN(C4(C)CCOCC4)CC3c3ccc(F)cc3F)[C@@H](C)C2)c(F)c1 (stereo partly drawn) [Example 84] | 
26 | 1.7 | 1.8 | 0.012 | C[C@H]1CN([C@@H](Cc2ccc(C3CC3)cc2F)C(=O)O)CCN1C(=O)[C@@H]1CN(C2CCOCC2)C[C@H]1c1ccc(Cl)cc1F [Example 92] | 
27 |  |  |  | O=C(N[C@H](Cc1ccc(Cl)cc1)C(=O)N1CCC(Cn2cncn2)(C2CCCCC2)CC1)[C@H]1Cc2ccccc2CN1 [THIQ, reference compound] | exhibited a significant erection-inducing effect
